Test results taken from patent US20250129021A1, “SMALL MOLECULE PROTEIN SYNTHESIS MODULATORS” (Interdict Bio, Inc., priority 2023, published 2025).

Experiments:
Type in all cases: biochemical
BCL-2 = assay: In vitro transcription-translation (IVTT) assay, BCL-2 reporter; conditions: HeLa S3 lysate, sfGFP/mCherry ratio, 2 hrs at 30° C.
Text: All reporter constructs have been cloned into the pT7CFE1-CHis plasmid (ThermoFisher #88860) using Gibson assembly procedures (NEB #E2611L). The parental pT7CFE1-CHis plasmid contains an EMCV IRES at the 5′UTR for translation initiation, a multiple-cloning site (MCS) for gene insertion, an optional C-terminal His-epitope tag, and polyA sequence in the 3′UTR to regulate mRNA stability. All reporters are designed to be inserted at the MCS to include a red fluorescent protein (mCherry), P2A self-cleaving peptide which releases the preceding mCherry protein product, and a fusion open reading frame containing a 3×FLAG epitope, a peptide sequence of interest (TEST), and green fluorescent protein (sfGFP).
Construct Plasmid Preparation: All plasmids are isolated from MACH1 cells (ThermoFisher) grown overnight in ampicillin-containing luria broth, and purified using ZymoPure Express Plasmid Midiprep Kit (Zymo Research). Constructs are sequenced verified and diluted to a working concentration of 110 ng/μL.
HeLa S3 Lysate Preparation: HeLa S3 cell pellets are acquired from Ipracell/Ipratech (Belgium) and shipped as 4 mL frozen cell pellets on dry ice for storage at −80° C. until use. The procedure for lysate preparation is as follows. Prepare 1× Lysis Buffer, cold and stored on ice:
(§1) Each preparation takes 8 cell pellets (4 ml packed volume each, approximately 1.0×10^9 cells per pellet). Thaw cell pellets from −80° C. on ice for 90 mins. Lay pellets horizontally on top of the ice and rotate every 30 mins to ensure even thawing. Once thawed, add 4 mL of cold lysis buffer to each pellet, and using a serological pipet, gently pipet up and down to break up clumps. Incubate resuspended cells in ice for an additional 30 mins (plunged into ice). During 30 min incubation, rinse and RNase-zap (Ambion) glass dounces (use loose pestle “A”), gently dry and place on ice until needed. Prepare RNase-free Eppendorf tubes for spinning and for batch storage. Add batch labels to 1.5-1.7 mL RNase-free microcentrifuge tubes (labeling scheme below). Each batch will have an extra 1.5-1.7 mL RNase-free microcentrifuge tube for 40 μL of lysate, label the top of this tube (labeling scheme below). After 30 min incubation, transfer all 8 mL of cell pellet to dounce. Cell lysis is complete after douncing 100 times. Aliquot cell lysis into 1.5-1.7 mL temporary-microcentrifuge tubes. Place tubes in centrifuge with “fins” out, and spin at 1,200×g for 5 mins. After the first spin use a 1 mL pipet to resuspend each tube and repeat spin. This acts as an additional lysis step, is more vigorous and increases lysate yield. During second spin get liquid N2 and a fresh conical tube on ice. After spin is complete, transfer supernatant (lysate) from microcentrifuge tubes into the 50 mL conical tube and keep on ice. Repeat steps 10-14 for all other cell pellets until completed. Once all cell lysate has been transferred to the 50 mL conical tube pipet to mix so the solution is homogenous. Transfer 1 mL of lysate into batch-labeled microcentrifuge tubes and flash freeze in liquid nitrogen. Be sure to pipet up and down to mix throughout transfer step. Place all tubes in the […] for long-term storage.
In vitro transcription-translation assay setup: Each assay includes a master mix containing lysate and shared components, a 96-well plate containing compound titrations for testing, a 96-well DNA plate with reporter constructs to be tested, 96-well skirted PCR plates, and 96-well flat-bottom, black, fluorescent assay plates. […]

CCND1 = assay: In vitro transcription-translation (IVTT) assay, CCND1 reporter; conditions: HeLa S3 lysate, 2 hrs at 30° C.
Method in brief: (§2)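 Reporter: mCherry, P2A, then 3×FLAG-target peptide-sfGFP fusion, IRES-initiated; HeLa S3 lysate IVTT; cpd dilutions 30 μM−0.1 μM half-log in 100% DMSO (dilution-plate conc); DNA added last; 2 h, 30° C; PBS quench.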

MYC = assay: In vitro transcription-translation (IVTT) assay, MYC reporter; conditions: HeLa S3 lysate, 2 hrs at 30° C.
Method in brief: as §2

KRAS G12D = assay: In vitro transcription-translation (IVTT) assay, KRAS G12D reporter; conditions: HeLa S3 lysate, sfGFP/mCherry ratio, 2 hrs at 30° C.
Method in brief: as §2

MCL-1 = assay: In vitro transcription-translation (IVTT) assay, MCL-1 reporter; conditions: HeLa S3 lysate, sfGFP/mCherry ratio, 2 hrs at 30° C.
Method in brief: as §2

ALK = assay: In vitro transcription-translation (IVTT) assay, ALK reporter; conditions: HeLa S3 lysate, sfGFP/mCherry ratio, 2 hrs at 30° C.
Method in brief: as §2

CCNE1 = assay: In vitro transcription-translation (IVTT) assay, CCNE1 reporter; conditions: HeLa S3 lysate, 2 hrs at 30° C.
Experimental: as §1
In vitro transcription-translation assay setup: Each assay includes a master mix containing lysate and shared components, a 96-well plate containing compound titrations for testing, a 96-well DNA plate with reporter constructs to be tested, 96-well skirted PCR plates, and 96-well flat-bottom, black, fluorescent assay plates. Reaction materials setup: (A) Master mix—15 mL conical tube (3 mL of HeLa S3 Lysate described above; 0.6 mL of ThermoFisher Accessory Proteins (#88882); 1.2 ml of ThermoFisher Reaction Mix (#88882); 0.54 mL of nuclease-free Water); (B) 96-Well Master Mix+Compound Plate (Half-log dilutions (30 μM−0.1 μM) of 4 compounds of interest are prepared in 100% DMSO); 96-Well DNA Plate (Five DNA constructs are plated into single columns within the plate. Row 1 of the column contains nuclease free H2O, all other wells contain 110 ng/μL plasmid DNA). Reactions are started by mixing 155 μL of master mix and 3.5 μL of compound serial dilutions, then 9.1 μL of master mix+compound mixture is aliquoted across 5 96-well plates. Reactions begin with final addition of 2 μL of DNA for a 11.1 μL reaction volume in each well. The entire plate is sealed, and incubated for 2 hrs at 30° C. After 2 hrs, quench the assay using 45 μL of PBS, and transfer 50 μL to a flat-bottom black microplate Quantify the sfGFP and mCherry signals from each well on each plate, taking 3 reads of each plate, and perform data analysis below.
In vitro transcription-translation assay data analysis: Each plate is read three times in channels for both sfGFP and mCherry signals. The average signal across these 3 reads is then calculated for further analysis. Control wells containing no DNA reporter are subtracted from reporter wells in the same column to remove auto-fluorescence of the lysate. Then, the ratio of sfGFP/mCherry is calculated per well, and these ratios are averaged across the triplicate experiments on the same plate. Finally, the ratio of each titration concentration is normalized to the no drug control to create the normalized stalling metric. […]

CCNTB1 = assay: In vitro transcription-translation (IVTT) assay, CCNTB1 reporter; conditions: HeLa S3 lysate, 2 hrs at 30° C.
Method in brief: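 HeLa S3 lysate-based coupled transcription-translation reactions with reporter plasmids, compounds in half-log dilutions (30 μM−0.1 μM, in DMSO), 2 h at 30° C. sfGFP/mCherry ratio, corrected for no-DNA background, normalized to no-drug control and fitted for IC50.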

[1] = IVTT assay, MYC reporter, normalized sfGFP/mCherry ratio, half-log dilutions 30 μM-0.1 μM

| IC50 (BCL-2) | IC50 (CCND1; sfGFP/mCherry ratio) | IC50 (MYC; sfGFP/mCherry ratio) | IC50 (KRAS G12D) | IC50 (MCL-1) | IC50 (ALK) | IC50 (CCNE1) | IC50 (CCND1; IVTT) | IC50 (CCNTB1) | SMILES | IC50 (MYC; [1]) |
| --- | --- | --- | --- | --- | --- | --- | --- | --- | --- | --- |
|  |  |  |  |  |  | > 30 µM | > 30 µM | > 30 µM | COc1ccc(C[C@H]2NC[C@H](O)[C@H]2OC(=O)NCc2cc(N3CCCC3)nc(N3CCCC3)c2)cc1 [V188228, (2R,3S,4S)-4-hydroxy-2-[(4-methoxyphenyl)methyl]pyrrolidin-3-yl N-{[2,6-bis(pyrrolidin-1-yl)pyridin-4-yl]methyl}carbamate] | > 30 µM |
|  |  |  |  |  |  | 20 to 30 µM | > 30 µM | 10 to 20 µM | COc1ccc(C[C@H]2NC[C@H](O)[C@H]2OC(=O)NCC(F)(F)CO)cc1 [V188164, (2R,3S,4S)-4-hydroxy-2-[(4-methoxyphenyl)methyl]pyrrolidin-3-yl N-(2,2-difluoro-3-hydroxypropyl)carbamate] | > 30 µM |
| < 10 µM |  | < 10 µM | < 10 µM | < 10 µM | < 10 µM |  |  |  | COc1ccc(C[C@H]2NC[C@H](O)[C@H]2OC(=O)NCCc2ccncc2)cc1 [V187807, (2R,3S,4S)-4-hydroxy-2-[(4-methoxyphenyl)methyl]pyrrolidin-3-yl N-[2-(pyridin-4-yl)ethyl]carbamate] |  |
|  |  |  |  |  |  | < 10 µM | < 10 µM | < 10 µM | COc1ccc(C[C@H]2NC[C@H](O)[C@H]2OC(=O)NCc2ccc(=O)[nH]c2)cc1 [V188206, (2R,3S,4S)-4-hydroxy-2-[(4-methoxyphenyl)methyl]pyrrolidin-3-yl N-[(6-oxo-1H-pyridin-3-yl)methyl]carbamate] | < 10 µM |
| 20 to 30 µM | 20 to 30 µM | 20 to 30 µM |  | 10 to 20 µM |  |  |  |  | COc1ccc(C[C@H]2NC[C@H](O)[C@H]2OC(=O)NCC(=O)NCC(N)=O)cc1 [V188021, (2R,3S,4S)-4-hydroxy-2-[(4-methoxyphenyl)methyl]pyrrolidin-3-yl N-[(carbamoylmethylcarbamoyl)methyl]carbamate] |  |
| 20 to 30 µM | 10 to 20 µM | < 10 µM |  | < 10 µM |  |  |  |  | COc1ccc(C[C@H]2NC[C@H](O)[C@H]2OC(=O)NCCc2ccn(C)n2)cc1 [V187847, (2R,3S,4S)-4-hydroxy-2-[(4-methoxyphenyl)methyl]pyrrolidin-3-yl N-[2-(1-methylpyrazol-3-yl)ethyl]carbamate] |  |
| < 10 µM | < 10 µM | < 10 µM | < 10 µM | < 10 µM | < 10 µM |  |  |  | COc1ccc(C[C@H]2NC[C@H](O)[C@H]2OC(=O)NCCc2cnc[nH]2)cc1 [V187593, (2R,3S,4S)-4-hydroxy-2-[(4-methoxyphenyl)methyl]pyrrolidin-3-yl N-[2-(3H-imidazol-4-yl)ethyl]carbamate] |  |
|  |  |  |  |  |  | 10 to 20 µM | > 30 µM | < 10 µM | COc1ccc(C[C@H]2NC[C@H](O)[C@H]2OC(=O)NCC23CNC(C2)C3)cc1 [V188152, (2R,3S,4S)-4-hydroxy-2-[(4-methoxyphenyl)methyl]pyrrolidin-3-yl N-{2-azabicyclo[2.1.1]hexan-4-ylmethyl}carbamate] |  |
| > 30 µM | > 30 µM | 10 to 20 µM |  | 10 to 20 µM |  |  |  |  | COc1ccc(C[C@H]2NC[C@H](O)[C@H]2OC(=O)NCc2ccc(I)cc2)cc1 [V187928, (2R,3S,4S)-4-hydroxy-2-[(4-methoxyphenyl)methyl]pyrrolidin-3-yl N-[(4-iodophenyl)methyl]carbamate] |  |
| 10 to 20 µM | < 10 µM | < 10 µM |  | < 10 µM |  |  |  |  | COc1ccc(C[C@H]2NC[C@H](O)[C@H]2OC(=O)NCCc2cc(C)on2)cc1 [V187719, (2R,3S,4S)-4-hydroxy-2-[(4-methoxyphenyl)methyl]pyrrolidin-3-yl N-[2-(5-methyl-1,2-oxazol-3-yl)ethyl]carbamate] |  |
| > 30 µM | > 30 µM | > 30 µM |  | > 30 µM |  |  |  |  | COc1ccc(C[C@H]2NC[C@H](O)[C@H]2OC(=O)NCC(=O)O)cc1 [V188016] |  |
| > 30 µM | > 30 µM | > 30 µM |  | > 30 µM |  |  |  |  | COc1ccc(C[C@H]2NC[C@H](O)[C@H]2OC(=O)NCC2(F)CNC2)cc1 [V187877, (2R,3S,4S)-4-hydroxy-2-[(4-methoxyphenyl)methyl]pyrrolidin-3-yl N-[(3-fluoroazetidine-3-yl)methyl]carbamate] |  |
| < 10 µM | < 10 µM | < 10 µM | < 10 µM | < 10 µM | < 10 µM |  |  |  | COc1ccc(C[C@H]2NC[C@H](O)[C@H]2OC(=O)NCc2c[nH]cn2)cc1 [V187192, (2R,3S,4S)-4-hydroxy-2-[(4-methoxyphenyl)methyl]pyrrolidin-3-yl N-(1H-imidazol-4-ylmethyl)carbamate] |  |
| 20 to 30 µM | > 30 µM | 10 to 20 µM |  | < 10 µM |  |  |  |  | COc1ccc(C[C@H]2NC[C@H](O)[C@H]2OC(=O)NCC(=O)N[C@@H](C)C(N)=O)cc1 [Cmpd V188022] |  |

| SMILES | IC50 (BCL-2) | IC50 (CCND1; sfGFP/mCherry ratio) | IC50 (MYC; sfGFP/mCherry ratio) | IC50 (KRAS G12D) | IC50 (MCL-1) | IC50 (ALK) | IC50 (CCNE1) | IC50 (CCND1; IVTT) | IC50 (CCNTB1) | IC50 (MYC; [1]) |
| --- | --- | --- | --- | --- | --- | --- | --- | --- | --- | --- |
| COc1ccc(C[C@H]2NC[C@H](O)[C@H]2OC(=O)NCCc2cc[nH]n2)cc1 [V187698, (2R,3S,4S)-4-hydroxy-2-[(4-methoxyphenyl)methyl]pyrrolidin-3-yl N-[2-(1H-pyrazol-3-yl)ethyl]carbamate; trifluoroacetic acid] | < 10 µM | < 10 µM | < 10 µM | < 10 µM | < 10 µM | < 10 µM |  |  |  |  |
| COc1ccc(C[C@H]2NC[C@H](O)[C@H]2OC(=O)NCc2ccn[nH]2)cc1 [V187321, (2R,3S,4S)-4-hydroxy-2-[(4-methoxyphenyl)methyl]pyrrolidin-3-yl N-(2H-pyrazol-3-ylmethyl)carbamate; trifluoroacetic acid] | < 10 µM | < 10 µM | < 10 µM | < 10 µM | < 10 µM | < 10 µM |  |  |  |  |
